# Measurements: patent US4439426A, “Semisynthetic macrolidic antibiotics, intermediate compounds for their preparation and related pharmaceutical compositions containing them” (priority 1981, dated 1984)
# Legend:
# [1] = Stability in acidic environment at 25° C. (half-life of initial microbiological activity); assay type: physicochemical; conditions: aqueous solution
# Method: Stability in acidic environnment at 25° C. of the novel
# Note: t 1/2 represents the time for reducing to one half the initial powe
# of the antibiotic determined by microbiological method through diffusion
# on a plate using the test stock Microccocus luteus (Sarcina lutea) ATCC
# [2] = test system: Acholeplasma laidlawii ATCC 23206 LRP 204; assay: Bacteriostatic power in solid medium (MIC); assay type: cell-based; conditions: Acholeplasma laidlawii, ATCC23206, read-out: Minimum inhibiting concentration
# From the text: (§1) the bacteriostatic power, expressed as the minimum inhibiting concentration (MIC) against both aerobic and anaerobic, Gram positive and Gram negative, bacterial stocks: the related results are reported in the tables 2 and 3.
# Bacillus subtilis LRP 25 = assay: Bacteriostatic power in solid medium (MIC); assay type: cell-based; conditions: Bacillus subtilis, LRP25, read-out: Minimum inhibiting concentration
# From the text: as §1
# [3] = test system: Bacteroides fragilis ATCC 23745 LRP 205; assay: Bacteriostatic power in solid medium (MIC); assay type: cell-based; conditions: Bacteroides fragilis, ATCC23745, read-out: Minimum inhibiting concentration
# From the text: as §1
# [4] = test system: Corynebacterium diphteriae LRP 24; assay: Bacteriostatic power in solid medium (MIC); assay type: cell-based; conditions: Corynebacterium, LRP24, read-out: Minimum inhibiting concentration
# From the text: as §1
# Escherichia coli LRP 50 = assay: Bacteriostatic power in solid medium (MIC); assay type: cell-based; conditions: Escherichia coli, LRP50, read-out: Minimum inhibiting concentration
# From the text: as §1
# [5] = test system: Fusobacteriumnecrophroum ATCC 27852 LRP 210; assay: Bacteriostatic power in solid medium (MIC); assay type: cell-based; conditions: read-out: Minimum inhibiting concentration
# From the text: as §1
# [6] = test system: Haemophilus influenzae ATCC 19418 LRP 213; assay: Bacteriostatic power in solid medium (MIC); assay type: cell-based; conditions: Haemophilus influenzae, ATCC19418, read-out: Minimum inhibiting concentration
# From the text: as §1
# [7] = test system: Klelsiella pneumoniae LRP 54; assay: Bacteriostatic power in solid medium (MIC); assay type: cell-based; conditions: read-out: Minimum inhibiting concentration
# From the text: as §1
# [8] = test system: Micrococcus luteus ATCC 15957 LRP 193; assay: Bacteriostatic power in solid medium (MIC); assay type: cell-based; conditions: Micrococcus luteus, ATCC15957, read-out: Minimum inhibiting concentration
# From the text: as §1
# [9] = test system: Micrococcus luteus ATCC 9341 LRP 6; assay: Bacteriostatic power in solid medium (MIC); assay type: cell-based; conditions: Micrococcus luteus, ATCC9341, read-out: Minimum inhibiting concentration
# From the text: as §1
# [10] = test system: Mycoplasma hominis I ATCC 14027 LRP 211; assay: Bacteriostatic power in solid medium (MIC); assay type: cell-based; conditions: Metamycoplasma hominis, ATCC14027, read-out: Minimum inhibiting concentration
# From the text: as §1
# [11] = test system: Neisseria gonorrhoeae ATCC 19424 LRP 214; assay: Bacteriostatic power in solid medium (MIC); assay type: cell-based; conditions: Neisseria gonorrhoeae, ATCC19424, read-out: Minimum inhibiting concentration
# From the text: as §1
# [12] = test system: Proteus vulgaris ATCC 6380 LRP 13; assay: Bacteriostatic power in solid medium (MIC); assay type: cell-based; conditions: Proteus vulgaris, ATCC6380, read-out: Minimum inhibiting concentration
# From the text: as §1
# [13] = test system: Pseudomonas aeruginosa LRP 9; assay: Bacteriostatic power in solid medium (MIC); assay type: cell-based; conditions: Pseudomonas aeruginosa, LRP9, read-out: Minimum inhibiting concentration
# From the text: as §1
# Shigella sonnei LRP 5 = assay: Bacteriostatic power in solid medium (MIC); assay type: cell-based; conditions: LRP5, read-out: Minimum inhibiting concentration
# From the text: as §1
# [14] = test system: Staphylococcus aureus ATCC 14154 LRP 78; assay: Bacteriostatic power in solid medium (MIC); assay type: cell-based; conditions: Staphylococcus aureus, ATCC14154, read-out: Minimum inhibiting concentration
# From the text: as §1
# [15] = test system: Staphylococcus aureus ATCC 6538P LRP 14; assay: Bacteriostatic power in solid medium (MIC); assay type: cell-based; conditions: Staphylococcus aureus, ATCC6538P, read-out: Minimum inhibiting concentration
# From the text: as §1
# [16] = test system: Staphylococcus aureus ATCC 6538P LRP 39; assay: Bacteriostatic power in solid medium (MIC); assay type: cell-based; conditions: Staphylococcus aureus, ATCC6538P, read-out: Minimum inhibiting concentration
# From the text: as §1
# [17] = test system: Streptococcus faecalis LRP 7; assay: Bacteriostatic power in solid medium (MIC); assay type: cell-based; conditions: Enterococcus faecalis, LRP7, read-out: Minimum inhibiting concentration
# From the text: as §1
# [18] = test system: Streptococcus faecalis subsp. zymogenes ATCC 12958 LRP 61; assay: Bacteriostatic power in solid medium (MIC); assay type: cell-based; conditions: Enterococcus faecalis, ATCC12958, read-out: Minimum inhibiting concentration
# From the text: as §1
# [19] = test system: Streptococcus pneumoniae ATCC 6303 LRP 35; assay: Bacteriostatic power in solid medium (MIC); assay type: cell-based; conditions: Streptococcus pneumoniae, ATCC6303, read-out: Minimum inhibiting concentration
# From the text: as §1
# [20] = test system: Streptococcus pneumoniae ATCC 6303 LRP 52; assay: Bacteriostatic power in solid medium (MIC); assay type: cell-based; conditions: Streptococcus pneumoniae, ATCC6303, read-out: Minimum inhibiting concentration
# From the text: as §1
# [21] = test system: Streptococcus pneumoniae ATCC 6303 LRP 53; assay: Bacteriostatic power in solid medium (MIC); assay type: cell-based; conditions: Streptococcus pneumoniae, ATCC6303, read-out: Minimum inhibiting concentration
# From the text: as §1
# [22] = test system: Streptococcus pyogenes ATCC 8668 LRP 197; assay: Bacteriostatic power in solid medium (MIC); assay type: cell-based; conditions: Streptococcus pyogenes, ATCC8668, read-out: Minimum inhibiting concentration
# From the text: as §1
# [23] = test system: Streptococcus pyogenes ATCC 8668 LRP 34; assay: Bacteriostatic power in solid medium (MIC); assay type: cell-based; conditions: Streptococcus pyogenes, ATCC8668, read-out: Minimum inhibiting concentration
# From the text: as §1
# [24] = test system: Clostridium perfrigens ATCC 3624 LRP 206; assay: microbe, parasite or virus in culture; assay type: cell-based; conditions: ATCC3624, solid medium, anaerobic, read-out: Minimum inhibiting concentration
# From the text: as §1
# Salmonella typhy LRP 8 = assay: microbe, parasite or virus in culture; assay type: cell-based; conditions: LRP8, solid medium, read-out: Minimum inhibiting concentration
# From the text: as §1
# [25] = test system: Corynebacterium diphteriae LRP 24; assay: Bacteriostatic power in liquid medium (MIC); assay type: cell-based; conditions: Corynebacterium, LRP24, read-out: Minimum inhibiting concentration
# From the text: as §1
# [26] = test system: Staphylococcus aureus ATCC 6538 P LRP 39; assay: Bacteriostatic power in liquid medium (MIC); assay type: cell-based; conditions: Staphylococcus aureus, ATCC6538, read-out: Minimum inhibiting concentration
# From the text: as §1
# [27] = test system: Streptococcus faecalis subs. zymogenes ATCC 12958 LRP 61; assay: Bacteriostatic power in liquid medium (MIC); assay type: cell-based; conditions: Enterococcus faecalis, ATCC12958, read-out: Minimum inhibiting concentration
# From the text: as §1
# [28] = test system: Streptococcus pneumoniae ATCC 6303 LRP 35; assay: Bacteriostatic power in liquid medium (MIC); assay type: cell-based; conditions: Streptococcus pneumoniae, ATCC6303, read-out: Minimum inhibiting concentration
# From the text: as §1
# [29] = test system: Streptococcus pyogenes ATCC 8668 LRP 34; assay: Bacteriostatic power in liquid medium (MIC); assay type: cell-based; conditions: Streptococcus pyogenes, ATCC8668, read-out: Minimum inhibiting concentration
# From the text: as §1
# [30] = test system: Corynebacterium diphteriae LRP 24; assay: Minimum bactericidal concentration (MBC); assay type: cell-based
# From the text: (§2) the bacterial power, expressed as the minimum bactericidal power (MBC) against some Gram positive aerobic stocks (table 5).
# [31] = test system: Staphylococcus aureus ATCC 6538 P LRP 39; assay: Minimum bactericidal concentration (MBC); assay type: cell-based
# From the text: as §2
# [32] = test system: Streptococcus faecalis subs. zymogenes LRP 61; assay: Minimum bactericidal concentration (MBC); assay type: cell-based
# From the text: as §2
# [33] = test system: Streptococcus pneumoniae ATCC 6303 LRP 35; assay: Minimum bactericidal concentration (MBC); assay type: cell-based
# From the text: as §2
# [34] = test system: Streptococcus pyogenes ATCC 8668 LRP 34; assay: Minimum bactericidal concentration (MBC); assay type: cell-based
# From the text: as §2
smiles,measurement,setting,value
"CC[C@H]1OC(=O)[C@H](C)[C@@H](O[C@H]2C[C@H](OC)[C@@H](O)[C@H](C)O2)[C@H](C)[C@@H](O[C@@H]2O[C@H](C)C[C@H](N(C)C)[C@H]2O)[C@](C)(O)C[C@](C)(F)C(=O)[C@H](C)[C@@H](O)[C@]1(C)O [P-80207, 3-O-oleandrosyl-5-O-desosaminyl-(8S)-8-fluoroerythronolide A]",half-life,[1]; pH 2,10 h
same,half-life,[1]; pH 3,100 h
same,MIC,[2],3.12 µg/mL
same,MIC,Bacillus subtilis LRP 25,0.39 µg/mL
same,MIC,[3],3.12 µg/mL
same,MIC,[4],0.049 µg/mL
same,MIC,Escherichia coli LRP 50,25 µg/mL
same,MIC,[5],12.5 µg/mL
same,MIC,[6],12.5 µg/mL
same,MIC,[7],25 µg/mL
same,MIC,[8],25 µg/mL
same,MIC,[9],0.049 µg/mL
same,MIC,[10],25 µg/mL
same,MIC,[11],0.097 µg/mL
same,MIC,[12],25 µg/mL
same,MIC,[13],25 µg/mL
same,MIC,Shigella sonnei LRP 5,25 µg/mL
same,MIC,[14],25 µg/mL
same,MIC,[15],0.39 µg/mL
same,MIC,[16],0.39 µg/mL
same,MIC,[17],0.39 µg/mL
same,MIC,[18],0.39 µg/mL
same,MIC,[19],0.049 µg/mL
same,MIC,[20],0.049 µg/mL
same,MIC,[21],0.097 µg/mL
same,MIC,[22],0.097 µg/mL
same,MIC,[23],0.049 µg/mL
same,MIC,[24],6.25 µg/mL
same,MIC,Salmonella typhy LRP 8,25 µg/mL
same,MIC,[25],0.049 µg/mL
same,MIC,[26],0.78 µg/mL
same,MIC,[27],0.78 µg/mL
same,MIC,[28],0.049 µg/mL
same,MIC,[29],0.097 µg/mL
same,MBC/MIC,[30],4
same,MBC,"[30]; Corynebacterium, LRP24, read-out: Minimum bactericidal concentration (MBC)",0.195 µg/mL
same,MBC/MIC,[31],8
same,MBC,"[31]; Staphylococcus aureus, ATCC6538, read-out: Minimum bactericidal concentration (MBC)",6.25 µg/mL
same,MBC/MIC,[32],8
same,MBC,"[32]; Enterococcus faecalis, read-out: Minimum bactericidal concentration (MBC)",6.25 µg/mL
same,MBC/MIC,[33],2
same,MBC,"[33]; Streptococcus pneumoniae, ATCC6303, read-out: Minimum bactericidal concentration (MBC)",0.097 µg/mL
same,MBC/MIC,[34],8
same,MBC,"[34]; Streptococcus pyogenes, ATCC8668, read-out: Minimum bactericidal concentration (MBC)",0.78 µg/mL
